Measured values from patent US11306092B2, “Amino indole compounds useful as TLR inhibitors” (BRISTOL-MYERS SQUIBB COMPANY, priority 2017, dated 2022).

Columns and labels:
Type in all cases: cell-based
[1] = target: T1, human TLR9 (Homo sapiens, UniProt Q9NR96); test: TLR9 inhibition reporter assay (HEK-Blue SEAP reporter); conditions: HEK-Blue cells overexpressing human TLR9; ODN2006 5 nM; 22 hour incubation
T1 construct: host or cells: HEK-Blue cells
T1 sequence (Q9NR96 26-1032): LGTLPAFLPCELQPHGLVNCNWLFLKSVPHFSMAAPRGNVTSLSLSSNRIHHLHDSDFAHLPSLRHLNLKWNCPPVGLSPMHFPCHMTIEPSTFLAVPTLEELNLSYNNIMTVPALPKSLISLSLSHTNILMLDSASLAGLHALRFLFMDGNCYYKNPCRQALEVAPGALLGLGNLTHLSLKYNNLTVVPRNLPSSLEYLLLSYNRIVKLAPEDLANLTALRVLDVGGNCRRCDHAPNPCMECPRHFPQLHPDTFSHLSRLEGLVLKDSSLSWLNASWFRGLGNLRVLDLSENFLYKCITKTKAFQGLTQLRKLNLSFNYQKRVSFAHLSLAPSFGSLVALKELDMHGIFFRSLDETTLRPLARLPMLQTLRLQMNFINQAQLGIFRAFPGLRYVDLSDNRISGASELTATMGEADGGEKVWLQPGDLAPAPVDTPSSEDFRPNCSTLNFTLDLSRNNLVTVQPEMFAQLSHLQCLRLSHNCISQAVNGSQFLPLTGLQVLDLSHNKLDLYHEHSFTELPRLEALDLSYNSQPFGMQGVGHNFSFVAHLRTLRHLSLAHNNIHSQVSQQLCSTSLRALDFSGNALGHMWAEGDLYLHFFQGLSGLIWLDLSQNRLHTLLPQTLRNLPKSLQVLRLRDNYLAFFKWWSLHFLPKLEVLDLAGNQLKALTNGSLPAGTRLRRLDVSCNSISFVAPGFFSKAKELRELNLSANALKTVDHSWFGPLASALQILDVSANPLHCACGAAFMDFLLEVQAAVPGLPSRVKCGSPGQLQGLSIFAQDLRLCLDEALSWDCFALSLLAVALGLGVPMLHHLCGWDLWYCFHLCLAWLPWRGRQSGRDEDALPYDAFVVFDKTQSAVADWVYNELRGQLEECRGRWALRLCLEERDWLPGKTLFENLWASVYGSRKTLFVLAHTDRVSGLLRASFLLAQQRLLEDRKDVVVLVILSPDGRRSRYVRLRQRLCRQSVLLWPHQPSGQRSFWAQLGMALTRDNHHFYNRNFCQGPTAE
Procedure, shortened: (§1)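 Compound treatment: 30 min, RT, 0.05 nM–50 μM final. Agonist: TLR7 gardiquimod 7.5 μM; TLR8 R848 15.9 μM; TLR9 ODN2006 5 nM. Incubation 22 h, 37 °C, 5% CO2. Readout SEAP, HEK-Blue Detection.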

[2] = target: T2, human TLR8 (Homo sapiens, UniProt Q9NR97); test: TLR8 inhibition reporter assay (HEK-Blue SEAP reporter); conditions: HEK-Blue cells overexpressing human TLR8; R848 15.9 μM; 22 hour incubation
T2 construct: host or cells: HEK-Blue cells
T2 sequence (Q9NR97 27-1041): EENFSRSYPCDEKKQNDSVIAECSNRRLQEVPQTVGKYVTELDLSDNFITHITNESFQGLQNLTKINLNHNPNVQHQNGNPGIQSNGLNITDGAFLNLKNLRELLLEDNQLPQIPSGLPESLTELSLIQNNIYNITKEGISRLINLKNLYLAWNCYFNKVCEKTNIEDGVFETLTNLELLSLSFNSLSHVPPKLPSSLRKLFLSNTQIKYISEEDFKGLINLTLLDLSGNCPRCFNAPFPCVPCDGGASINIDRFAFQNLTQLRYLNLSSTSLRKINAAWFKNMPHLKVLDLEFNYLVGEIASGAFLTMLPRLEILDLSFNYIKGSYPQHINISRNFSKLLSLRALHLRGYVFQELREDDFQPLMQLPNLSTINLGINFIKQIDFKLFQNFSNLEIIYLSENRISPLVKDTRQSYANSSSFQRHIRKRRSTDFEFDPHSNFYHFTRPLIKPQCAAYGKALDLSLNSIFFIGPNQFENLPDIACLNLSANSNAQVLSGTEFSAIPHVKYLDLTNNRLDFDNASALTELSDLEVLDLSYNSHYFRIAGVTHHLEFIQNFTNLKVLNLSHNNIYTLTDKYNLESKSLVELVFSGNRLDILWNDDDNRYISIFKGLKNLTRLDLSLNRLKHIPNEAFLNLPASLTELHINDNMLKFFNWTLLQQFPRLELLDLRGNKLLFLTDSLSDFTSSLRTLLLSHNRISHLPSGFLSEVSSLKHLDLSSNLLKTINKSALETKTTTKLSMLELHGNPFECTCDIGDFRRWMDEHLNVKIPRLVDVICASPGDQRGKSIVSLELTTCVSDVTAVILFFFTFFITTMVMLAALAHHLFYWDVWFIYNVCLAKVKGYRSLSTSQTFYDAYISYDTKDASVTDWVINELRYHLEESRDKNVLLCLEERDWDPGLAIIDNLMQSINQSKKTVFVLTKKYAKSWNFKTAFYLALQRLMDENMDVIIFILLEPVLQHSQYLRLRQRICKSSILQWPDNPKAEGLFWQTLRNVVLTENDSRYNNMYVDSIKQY
Procedure, shortened: as §1

[3] = target: T3, human TLR7 (Homo sapiens, UniProt Q9NYK1); test: TLR7 inhibition reporter assay (HEK-Blue SEAP reporter); conditions: HEK-Blue cells overexpressing human TLR7; gardiquimod 7.5 μM; 22 hour incubation
T3 construct: host or cells: HEK-Blue cells
T3 sequence (Q9NYK1 27-1049): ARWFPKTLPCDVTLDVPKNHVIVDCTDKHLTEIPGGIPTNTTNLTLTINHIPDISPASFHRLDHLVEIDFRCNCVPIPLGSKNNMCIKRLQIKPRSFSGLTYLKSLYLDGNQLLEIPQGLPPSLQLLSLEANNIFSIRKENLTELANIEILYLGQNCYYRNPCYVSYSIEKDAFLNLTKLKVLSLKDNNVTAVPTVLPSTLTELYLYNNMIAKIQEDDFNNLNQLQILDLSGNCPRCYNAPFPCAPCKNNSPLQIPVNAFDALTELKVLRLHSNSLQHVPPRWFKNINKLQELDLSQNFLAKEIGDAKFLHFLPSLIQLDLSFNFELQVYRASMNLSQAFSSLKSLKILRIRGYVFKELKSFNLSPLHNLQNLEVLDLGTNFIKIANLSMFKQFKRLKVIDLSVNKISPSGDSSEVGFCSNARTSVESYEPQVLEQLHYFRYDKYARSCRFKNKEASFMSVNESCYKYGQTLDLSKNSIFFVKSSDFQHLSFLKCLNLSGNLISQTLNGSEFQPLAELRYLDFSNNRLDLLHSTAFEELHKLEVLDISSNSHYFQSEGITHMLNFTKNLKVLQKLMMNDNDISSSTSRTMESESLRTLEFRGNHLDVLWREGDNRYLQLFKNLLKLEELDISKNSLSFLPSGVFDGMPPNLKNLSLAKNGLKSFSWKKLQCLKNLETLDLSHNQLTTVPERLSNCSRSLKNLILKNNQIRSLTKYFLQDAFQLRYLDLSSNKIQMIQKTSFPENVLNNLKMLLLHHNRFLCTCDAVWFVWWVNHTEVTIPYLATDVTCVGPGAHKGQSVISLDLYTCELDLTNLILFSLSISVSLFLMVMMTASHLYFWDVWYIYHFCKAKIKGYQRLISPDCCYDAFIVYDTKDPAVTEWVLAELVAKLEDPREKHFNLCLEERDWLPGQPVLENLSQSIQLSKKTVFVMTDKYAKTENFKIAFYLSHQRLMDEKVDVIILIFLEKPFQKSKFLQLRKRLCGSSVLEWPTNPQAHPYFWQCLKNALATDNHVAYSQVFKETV
Procedure, shortened: as §1

SMILES | IC50 [1] | IC50 [2] | IC50 [3]
COc1ccc(-c2[nH]c3ccc(NC4CCC(N5CCN(c6ccncc6)CC5)CC4)cc3c2C(C)C)cc1OC (stereo not drawn) [Example 59, 2-(3,4-dimethoxyphenyl)-3-isopropyl-N-(4-(4-(pyridin-4-yl)piperazin-1-yl)cyclohexyl)-1H-indol-5-amine] | 218 nM | 106 nM | 196 nM
COc1ccc(-c2[nH]c3ccc(N4CCC(N(C)C)C4)cc3c2C(C)C)cc1OC (stereo not drawn) [Example 120, 1-(2-(3,4-dimethoxyphenyl)-3-isopropyl-H-indol-5-yl)-N,N-dimethylpyrrolidin-3-amine] | 3290 nM | 17 nM | 118 nM
COc1ccc(-c2[nH]c3ccc(N4CCC(N(C)CCCN(C)C)CC4)cc3c2C(C)C)cc1OC [Example 81, N1-(1-(2-(3,4-dimethoxyphenyl)-3-isopropyl-1H-indol-5-yl)piperidin-4-yl)-N1,N3,N3-trimethylpropane-1,3-diamine] | 1050 nM | 10 nM | 44 nM
COc1ccc(-c2[nH]c3ccc(N4CCC(N5CCN(CCCN6CCCC6)CC5)CC4)cc3c2C(C)C)cc1OC [Example 102, 2-(3,4-dimethoxyphenyl)-3-isopropyl-5-(4-(4-(3-(pyrrolidin-1-yl)propyl)piperazin-1-yl)piperidin-1-yl)-1H-indole] | 413 nM | 28 nM | 16 nM
CCc1c(-c2ccnc(OC)c2)[nH]c2ccc(N3CCN(C4CCN(C)CC4)CC3)cc12 [Example 143, 3-ethyl-2-(2-methoxypyridin-4-yl)-5-(4-(1-methylpiperidin-4-yl)piperazin-1-yl)-1H-indole] | 839 nM | 10 nM | 75 nM
COc1ccc(-c2[nH]c3ccc(NC(=O)[C@H](N)CC(C)C)cc3c2C(C)C)cc1OC [Example 16, (R)-2-amino-N-(2-(3,4-dimethoxyphenyl)-3-isopropyl-1H-indol-5-yl)-4-methylpentanamide] | 5760 nM | 47 nM | 2070 nM
COc1ccc(-c2[nH]c3ccc(N4CCC(N(C)C)C4=O)cc3c2C(C)C)cc1OC (stereo not drawn) [Example 4, 1-(2-(3,4-dimethoxyphenyl)-3-isopropyl-1H-indol-5-yl)-3-(dimethylamino)pyrrolidin-2-one] | 9210 nM | 81 nM | 67 nM
CNCCN1CCN(c2ccc3[nH]c(-c4ccc(OC)c(OC)c4)c(C(C)C)c3c2)CC1 [Example 127, 2-(4-(2-(3,4-dimethoxyphenyl)-3-isopropyl-1H-indol-5-yl)piperazin-1-yl)-N-methylethanamine] | 6320 nM | 15 nM | 45 nM
Cc1c(-c2[nH]c3ccc(N4CCC(N(C)C)CC4)cc3c2C(C)C)cn(C)c(=O)c1Cl [Example 111, 3-chloro-5-(5-(4-(dimethylamino)piperidin-1-yl)-3-isopropyl-H-indol-2-yl)-1,4-dimethyl-114,215-pyridin-2-one] | 3460 nM | 1.8 nM | 2.4 nM
COc1ccc(-c2[nH]c3ccc(N4CCC(OC5CCN(C)CC5)CC4)cc3c2C(C)C)cc1OC [Example 187, 2-(3,4-dimethoxyphenyl)-3-isopropyl-5-(4-((1-methylpiperidin-4-yl)oxy)piperidin-1-yl)-1H-indole] | 1450 nM | 167 nM | 83 nM
CCc1c(-c2ccc(OC)c(OC)c2)[nH]c2ccc(N3CCN(C4CCN(C(C)C)CC4)CC3)cc12 [Example 169, 2-(3,4-dimethoxyphenyl)-3-ethyl-5-(4-(1-isopropylpiperidin-4-yl)piperazin-1-yl)-1H-indole] | 442 nM | 10 nM | 61 nM
COc1ccc(-c2[nH]c3ccc(N4CCC(C5c6ccccc6CCN5C)CC4)cc3c2C(C)C)cc1OC (stereo not drawn) [Example 119, 1-(1-(2-(3,4-dimethoxyphenyl)-3-isopropyl-1H-indol-5-yl)piperidin-4-yl)-2-methyl-1,2,3,4-tetrahydroisoquinoline] | 2300 nM | 24 nM | 1400 nM
CCc1c(-c2ccc(OC)c(OC)c2)[nH]c2ccc(N3CCC4(CCN(C)CC4)CC3)cc12 [Example 181, 3-(2-(3,4-dimethoxyphenyl)-3-ethyl-1H-indol-5-yl)-9-methyl-3,9-diazaspiro[5.5]undecane] | 517 nM | 74 nM | 54 nM
COc1ccc(-c2[nH]c3ccc(Nc4ccc(OCCN5CCCC5)cc4)cc3c2C(C)C)cc1OC [Example 106, 2-(3,4-dimethoxyphenyl)-3-isopropyl-N-(4-(2-(pyrrolidin-1-yl)ethoxy)phenyl)-1H-indol-5-amine] | 1430 nM | 35 nM | 1400 nM
COc1ccc(-c2[nH]c3ccc(N4CCN(C5CCN(C)CC5)CC4)cc3c2C(C)C)cc1OC [Example 162, 2-(3,4-dimethoxyphenyl)-3-isopropyl-5-(4-(1-methylpiperidin-4-yl)piperazin-1-yl)-1H-indole] | 935 nM | 7.9 nM | 30 nM
